Test results published in patent publication US20100092453A1, “Method of producing porous microparticles” (priority 2006, published 2010).

Assays:
[1] = In vitro dry powder inhaler deposition, Andersen Cascade Impactor
Experimental: The pulmonary deposition of the dry powders was investigated using an Andersen Cascade Impactor (ACI) (1 ACFM Eight Stage Non-Viable Cascade Impactor, Graseby Andersen, Atlanta, Ga.). […] Size 3 hard gelatin capsules (Farillon Ltd., U.K.) were filled to approximately 50% with the dry powder (approximately 25 mg of powder). […] The amount of powder deposited on each stage of the impactor was determined by weight, UV analysis or HPLC analysis.

[2] = Suspension sedimentation analysis (water/Tween 80); type: physicochemical; conditions: water/Tween 80 (96:4 v/v)
Experimental: Sedimentation analysis was carried out on suspensions of bendroflumethiazide (BFMT) and sulfadimidine. 25 ml suspensions were prepared by mixing water and Tween 80 (96:4 v/v) with 150 mg of the drug powder. The suspensions were transferred to 25 ml graduated cylinders, mixed thoroughly and their sedimentation observed over time.

[3] = Density measurements (bulk, tap, Carr's compressibility index); type: physicochemical
Experimental: Dublin 12) with a funnel. The weight of the powder required to fill the 1 ml graduated syringe was recorded to calculate bρ. […] The resultant volume was recorded [NT]ρ. Each measurement was performed in triplicate. The Carr's compressibility index of some of the systems was calculated from the following equation: compressibility index(%)=[(tap density-bulk density)/tap density]×100 Lower values of the index are desirable as they indicate better flow.

[4] = Suspension stability of MDI systems in HFA-134a; type: physicochemical; conditions: BFMT in HFA-134a
Experimental: In order to prepare metered dose inhalers, 20 mg of powder was weighed into glass vials. Afterwards a 25 μl metering valve (Bespak, UK) was crimped onto the glass vial and the liquid propellant HFA-134a was added through the nozzle. The final weight of each MDI (without the container and metering valve) was 10 g. The last two steps were performed using a Pamasol P 2016 aerosol filling station (Pamasol Willi Mader AG, Pfäffikon, Switzerland). Prepared MDIs were homogenised in a Bransonic 220 ultrasonic bath (UK) for 1 min.

Compound	mass median aerodynamic diameter (MMAD) [1]	time to completely settle in suspension [2]	compressibility index ([3]; Carr's index from tap and bulk density)	sedimentation of powder particles in suspension (observation) ([2]; observed up to four hours)	bulk density [3]	tap density [3]	sedimentation in MDI after 4 hours ([4]; 4 hours)	sedimentation in MDI after seven days ([4]; 7 days)
Cc1cc(C)nc(NS(=O)(=O)c2ccc(N)cc2)n1 [Micronised sulfadimidine, sulfadimidine]	14.4±4.9 μm	≤ 30 min	50.3%					
NS(=O)(=O)c1cc2c(cc1C(F)(F)F)NC(Cc1ccccc1)NS2(=O)=O (stereo not shown) [raw BFMT, bendroflumethiazide]				completely settle in a matter of seconds	0.29 g/mL	0.58 g/mL	noticeable sedimentation	completely settled
O=C(O)c1cc(=O)c2c(OCC(O)COc3cccc4oc(C(=O)O)cc(=O)c34)cccc2o1 [sodium cromoglycate]					0.341 ± 0.024 g/mL	0.661 ± 0.023 g/mL		
